Reference: publication PMC9252919, “Controlled masking and targeted release of redox-cycling ortho-quinones via a C–C bond-cleaving 1,6-elimination” (Nature Chemistry, 2022)

Tests used:
[1] = test system: AML cell line MOLM-13; assay: Viability assay with small-molecule prodrugs, MOLM-13; assay type: cell-based; conditions: 5 µM, 24 h
Description: (§1) For assays assessing cytotoxicity of β-lapachone versus small-molecule prodrugs, antibodies and ADCs, suspension cells were plated into 24-well plates at a density of 2.5 × 10^5 cells ml^−1 in 240 µl. Stocks of ADC or antibody in PBS were normalized to 12.5 µM. Serial dilutions of compound were made up in PBS. Then, 60 µl of each stock of either PBS or compound in PBS was added to the cells to achieve the desired final concentration. After the specified incubation time, toxicity was assessed by counting of live cells using the trypan blue exclusion method with a Countess II Automated Cell Counter (ThermoFisher Scientific) according to the manufacturer’s instructions. Cell viability was determined by dividing the average live cell number of treated wells by the average live cell number for control wells treated with PBS only. IC50 values were calculated using GraphPad Prism software. Note: for the assay performed over 96 h, 5% human serum was added to media instead of 10% fetal bovine serum, to limit non-specific antibody internalisation. This had little effect on ADC toxicity.

[2] = test system: CD33+ HL-60 cells; assay: Viability assay with small-molecule prodrugs and ADCs, HL-60; assay type: cell-based, human; conditions: Homo sapiens, read-out: IC50 against CD33+ HL-60 cells
Description: as §1

[3] = Quantitative LC-MS/MS of β-lapachone in xenograft mouse tumour; assay type: in vivo, NOD-SCID mice; conditions: fixed tumour homogenate of mice treated with ADC Gem-HC-239iC-BL
Description: Concentrations of β-lapachone in formalin-fixed tumour and the respective formol supernatant were quantified using reversed-phase ultra-high-performance liquid chromatography tandem mass spectrometry as previously described. Care was taken during sample handling to minimize exposure to light, and amber glass/plastic and foil wrapping were used where possible. Tumour tissue was homogenized to a concentration of 200 mg ml^−1 with PBS. An aliquot of homogenate or formol supernatant sample was transferred to a fresh tube with cryptotanshinone (internal standard) in ethyl acetate for liquid–liquid extraction. Samples were mixed, centrifuged and the ethyl acetate layer transferred to a 96-well plate, evaporated and reconstituted in 0.1% formic acid in acetonitrile:water 70:30. PBS was used as the surrogate matrix for calibration standards and quality-control samples. The calibration ranges were 0.25–250 ng g^−1 (homogenate) and 0.05–50 ng ml^−1 (formol). The analytical batches included quality-control samples at low, medium and high concentrations. The analysis was performed on a Shimadzu Nexera X2 UHPLC coupled to a Sciex TripleTOF 6600 mass spectrometer. The extracted samples were injected onto a Phenomenex Kinetex EVO C18, 1.7 µm, 50 × 2.1 mm analytical column, at 35 °C. […]

[4] = test system: HL-60 cells; assay: Lysosomal deacidification and inhibition assay; assay type: cell-based, human; conditions: HL-60, NH4Cl 30 mM
Description: Assays to assess the effect of lysosomal activity on prodrugs were performed as follows: HL-60 cells were plated into 96-well plates at a concentration of 2.5 × 10^5 cells ml^−1 in 180 µl media. Cells were treated with 10 µl of a stock of NH4Cl in PBS (to obtain an in-plate concentration of 3 or 30 mM), 10 µl of a dilution of a DMSO stock of E64d in PBS (to obtain an in-plate concentration of 30 μM), PBS only or a dilution of DMSO in PBS. Cells were incubated for 30 min. Following this, 10 µl of a stock of test compound made by dilution of a DMSO stock into media was added. DMSO was present in-plate at a maximum of 0.2%. Cells were incubated overnight for 16 h. Following incubation, media was replaced with media containing CellTiter-Blue (Promega) in 1:4 dilution and the plates were incubated for 6 h. The fluorescence of the plates was recorded (excitation, 555 nm; emission, 585 nm; MiniMax i3x Reader, Molecular Devices). Cell viability was calculated by division of the fluorescence intensity of treated wells by that of the average fluorescence intensity of the relevant negative control wells.

[5] = test system: HL-60 cells; assay: Cellular ROS detection with 2',7'-dichlorodihydrofluorescein diacetate; assay type: cell-based, human; conditions: 50 µM, 15 min
Description: To determine ROS generation by compounds in leukaemia cells, HL-60 cells were washed with PBS, then incubated in serum-free media (10 ml of 1.6 × 10^6 ml^−1 cell concentration) with 2,7-dichlorofluorescin diacetate at 20 µM for 30 min at 37 °C. Following this, the cells were washed with PBS and resuspended in Fluorbrite–DMEM media (ThermoFisher) (10 ml). Then, 450 µl of the cell mixture was seeded into wells of a clear flat-bottomed 12-well plate, to which 50 µl of a 10× stock of the compounds in media had been already added, to achieve a final compound concentration of 50 µM. The 10× media stocks were made by 100-fold dilution of DMSO compound stocks, to ensure a final in-plate DMSO concentration of 0.1%. DMSO 0.1% only was used as a negative control. […] After plating the cells were immediately incubated at 37 °C in the dark for 15 min before the fluorescence of the wells (excitation, 485 nm; emission, 535 nm) was recorded (MiniMax i3x Imager, Molecular Devices).

[6] = test system: range of cancer cell lines, including leukaemia, breast, colon and cervical cancer; assay: Viability assay (CellTiter-Blue) with small-molecule lapachone models; assay type: cell-based; conditions: 48 h
Description: Assays assessing cytotoxicity of β-lapachone and derivatives were performed by CellTiter-Blue assay (Promega) according to the manufacturer’s instructions. Briefly, adherent cancer-cell lines were plated at 20,000 cells per well in 96-well plates or suspension cell lines were plated at a concentration of 2 × 10^5 cells ml^−1 in 24-well plates. Compound stocks in media were made by dilution of DMSO stocks containing the compound of interest to obtain a final in-plate DMSO concentration of only 0.1%. Incubation was performed for 48 h. Following incubation, media was replaced with media containing CellTiter-Blue (Promega) in 1:10 dilution and the plates were incubated for 1.5–4 h. The fluorescence of the plates was recorded (excitation, 555 nm; emission, 585 nm; MiniMax i3x Reader, Molecular Devices). Cell viability was calculated by division of the fluorescence intensity of treated wells by that of the calculated average fluorescence intensity of replicate negative control wells containing cells with 0.1% DMSO only. IC50 values were calculated using GraphPad Prism 8 software.

| SMILES | toxicity to MOLM-13 at 5 µM [1] | IC50 [2] [µM] | concentration of 1 in tumour tissue [3] [ng/g] | toxicity with NH4Cl at 30 mM [4] | ROS generation in HL-60 [5] | decrease in toxicity relative to 1 [6] [fold] |
| --- | --- | --- | --- | --- | --- | --- |
| CC1(C)CCC2=C(O1)c1ccccc1C(=O)C2=O [Compound 1, β-lapachone, reference compound] | complete cell death | ~1 | 0.327 | increase in toxicity | – | – |
| CC1(C)CCC2=C(O1)c1ccccc1C(O)(Cc1ccccc1)C2=O (stereo not drawn) [Compound 24, benzyl β-lapa-ketol] | – | – | – | – | did not generate detectable ROS | > 20 |
